Test results from ChEMBL document CHEMBL1201862, “PubChem BioAssay data set” (2004).
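Each compound was tested at five concentrations against cells in 96-well plates for 48 hours. GI50 = concentration required for 50% inhibition of growth.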 The source made the active and inactive calls. Rule as the data show it: active = GI50 up to about 1.1 µM and inactive = higher.

What was measured:
Assay in all cases: growth of human tumour cells (NCI), 48 h
786-0 = test system: 786-0
A498 = test system: A498
CAKI-1 = test system: CAKI-1
CCRF-CEM = test system: CCRF-CEM
COLO 205 = test system: COLO 205
EKVX = test system: EKVX
HCC 2998 = test system: HCC 2998
HL-60 = test system: HL-60
HT-29 = test system: HT-29
K562 = test system: K562
Malme-3M = test system: Malme-3M
OVCAR-4 = test system: OVCAR-4
OVCAR-5 = test system: OVCAR-5
SF-268 = test system: SF-268
SK-MEL-2 = test system: SK-MEL-2
SNB-75 = test system: SNB-75
TK-10 = test system: TK-10
UACC-257 = test system: UACC-257
DU-145 = test system: DU-145
MCF7 = test system: MCF7

Measured: GI50

O=C(OCc1ccccc1)n1cccc1
inactive: 786-0 > 100 µM | A498 > 100 µM | CAKI-1 > 100 µM | CCRF-CEM > 100 µM | COLO 205 > 100 µM | EKVX > 100 µM | HCC 2998 > 100 µM | HL-60 57.4 µM | HT-29 65.9 µM | K562 97.1 µM | Malme-3M > 100 µM | OVCAR-4 > 100 µM | OVCAR-5 > 100 µM | SF-268 > 100 µM | SK-MEL-2 > 100 µM | SNB-75 31.8 µM | TK-10 > 100 µM | UACC-257 > 100 µM

CCN(CC)CCC(=O)c1ccc(Oc2ccc(C)cc2)cc1
inactive: 786-0 16.5 µM | CAKI-1 17.3 µM | CCRF-CEM 26.3 µM | COLO 205 23.4 µM | DU-145 29.1 µM | EKVX 20 µM | HCC 2998 19.2 µM | HT-29 18.9 µM | K562 30.5 µM | MCF7 17.6 µM | Malme-3M 17.5 µM | OVCAR-4 24.4 µM | OVCAR-5 19.5 µM | SF-268 18.8 µM | SK-MEL-2 33.2 µM | SNB-75 20.2 µM | TK-10 17.7 µM | UACC-257 19.2 µM

O=C(c1ccccc1)C(c1ccccc1)C1(O)C(=O)Nc2ccc(Br)cc21 (stereo not drawn)
inactive: 786-0 71.9 µM | A498 > 100 µM | CAKI-1 99.1 µM | CCRF-CEM 17.7 µM | COLO 205 > 100 µM | EKVX 68.2 µM | HCC 2998 > 100 µM | HL-60 16.6 µM | HT-29 52 µM | K562 18.9 µM | Malme-3M 76.6 µM | OVCAR-4 32.8 µM | OVCAR-5 > 100 µM | SF-268 72.6 µM | SK-MEL-2 61.1 µM | SNB-75 40.1 µM | TK-10 > 100 µM | UACC-257 22.3 µM

C=C1CC[C@]2(C)[C@H](CC[C@@]34C[C@@H](CC[C@H]32)[C@@H](C(=O)O)C4)C1(C)C
inactive: 786-0 7.83 µM | A498 3.69 µM | CAKI-1 > 12.5 µM | CCRF-CEM 7.05 µM | COLO 205 4.54 µM | EKVX > 12.5 µM | HL-60 4.7 µM | HT-29 5.35 µM | K562 4.21 µM | MCF7 > 12.5 µM | Malme-3M > 12.5 µM | OVCAR-4 > 12.5 µM | OVCAR-5 > 12.5 µM | SK-MEL-2 > 12.5 µM | TK-10 > 12.5 µM | UACC-257 > 12.5 µM

CC(=O)c1c(O)cc(O)c(-c2c(C)cc(O)c3c2C(=O)c2cccc(O)c2C3=O)c1O
inactive: 786-0 17.1 µM | A498 15.6 µM | DU-145 16.3 µM | EKVX 16.1 µM | HL-60 23.2 µM | HT-29 17.1 µM | K562 19.4 µM | MCF7 14.8 µM | Malme-3M 11.9 µM | OVCAR-4 10.8 µM | OVCAR-5 17.3 µM | SF-268 15.1 µM | SK-MEL-2 15.9 µM | SNB-75 15.2 µM | TK-10 15.8 µM | UACC-257 19.9 µM

Cc1c(C(=O)C/C(=N/NC(=O)C[N+](C)(C)C)C(=O)Nc2ccc(Cl)cc2)[n+]([O-])c2ccccc2[n+]1[O-]
inactive: 786-0 > 100 µM | A498 > 100 µM | CAKI-1 > 100 µM | CCRF-CEM > 100 µM | COLO 205 > 100 µM | EKVX > 100 µM | HCC 2998 > 100 µM | HL-60 > 100 µM | HT-29 > 100 µM | K562 > 100 µM | Malme-3M > 100 µM | OVCAR-4 > 100 µM | OVCAR-5 > 100 µM | SF-268 > 100 µM | SK-MEL-2 > 100 µM | SNB-75 > 100 µM | TK-10 > 100 µM | UACC-257 > 100 µM

COc1cc([C@@H]2c3cc4c(cc3[C@@H](OC3OC5COC(C)OC5C(OC(=O)CN5CCN(C)CC5)C3OC(=O)CN3CCN(C)CC3)C3COC(=O)[C@@H]32)OCO4)cc(OC)c1OC(=O)CN1CCN(C)CC1 (stereo partly drawn)
inactive: 786-0 21.9 µM | CAKI-1 37.7 µM | CCRF-CEM 9.29 µM | COLO 205 > 100 µM | DU-145 44.7 µM | EKVX > 100 µM | HCC 2998 32.1 µM | HL-60 11.5 µM | HT-29 > 100 µM | K562 67.5 µM | MCF7 10.8 µM | Malme-3M 61.7 µM | OVCAR-4 > 100 µM | OVCAR-5 > 100 µM | SF-268 75.3 µM | SK-MEL-2 > 100 µM | SNB-75 28.5 µM | TK-10 > 100 µM | UACC-257 > 100 µM
